Reference: ChEMBL document CHEMBL1138469, “Structural basis for inhibitor specificity in human poly(ADP-ribose) polymerase-3” (J Med Chem, 2009)
Calls of active or inactive are those of the source. The rule behind the calls is not given here.

Key:
[1] = target: T1, Poly [ADP-ribose] polymerase 1 (Homo sapiens, UniProt P09874)
Description: Binding affinity to human PARP1 by isothermal titration colorimetry

[2] = target: T1, Poly [ADP-ribose] polymerase 1; assay: Inhibition of human PARP1
[3] = target: T2, Protein mono-ADP-ribosyltransferase PARP3 (Homo sapiens) (UniProt Q9Y6F1); assay: Inhibition of human PARP3 auto-ADP ribosylation by Western blotting
T2 sequence (whole entry): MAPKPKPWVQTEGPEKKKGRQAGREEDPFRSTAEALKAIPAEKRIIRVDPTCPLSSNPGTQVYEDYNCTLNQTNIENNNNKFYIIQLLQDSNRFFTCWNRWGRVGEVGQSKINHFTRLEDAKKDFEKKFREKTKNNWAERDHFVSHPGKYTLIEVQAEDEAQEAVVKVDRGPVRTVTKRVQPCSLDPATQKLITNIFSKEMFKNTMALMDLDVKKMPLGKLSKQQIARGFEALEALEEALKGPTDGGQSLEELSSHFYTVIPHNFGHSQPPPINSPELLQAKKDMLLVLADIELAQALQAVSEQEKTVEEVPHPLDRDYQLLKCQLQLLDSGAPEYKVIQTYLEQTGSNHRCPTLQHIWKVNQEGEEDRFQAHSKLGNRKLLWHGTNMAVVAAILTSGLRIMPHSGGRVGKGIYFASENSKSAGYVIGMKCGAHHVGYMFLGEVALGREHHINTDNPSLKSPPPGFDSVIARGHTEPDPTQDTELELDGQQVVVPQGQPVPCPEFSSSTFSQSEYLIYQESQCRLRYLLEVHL

[4] = target: T3, Protein mono-ADP-ribosyltransferase PARP3 (Homo sapiens, UniProt Q9Y6F1); assay: Binding affinity to human PARP3 PARP domain by isothermal titration […]
T3 sequence (Q9Y6F1 whole entry): T2 sequence (whole entry)

T1 sequence (P09874 whole entry): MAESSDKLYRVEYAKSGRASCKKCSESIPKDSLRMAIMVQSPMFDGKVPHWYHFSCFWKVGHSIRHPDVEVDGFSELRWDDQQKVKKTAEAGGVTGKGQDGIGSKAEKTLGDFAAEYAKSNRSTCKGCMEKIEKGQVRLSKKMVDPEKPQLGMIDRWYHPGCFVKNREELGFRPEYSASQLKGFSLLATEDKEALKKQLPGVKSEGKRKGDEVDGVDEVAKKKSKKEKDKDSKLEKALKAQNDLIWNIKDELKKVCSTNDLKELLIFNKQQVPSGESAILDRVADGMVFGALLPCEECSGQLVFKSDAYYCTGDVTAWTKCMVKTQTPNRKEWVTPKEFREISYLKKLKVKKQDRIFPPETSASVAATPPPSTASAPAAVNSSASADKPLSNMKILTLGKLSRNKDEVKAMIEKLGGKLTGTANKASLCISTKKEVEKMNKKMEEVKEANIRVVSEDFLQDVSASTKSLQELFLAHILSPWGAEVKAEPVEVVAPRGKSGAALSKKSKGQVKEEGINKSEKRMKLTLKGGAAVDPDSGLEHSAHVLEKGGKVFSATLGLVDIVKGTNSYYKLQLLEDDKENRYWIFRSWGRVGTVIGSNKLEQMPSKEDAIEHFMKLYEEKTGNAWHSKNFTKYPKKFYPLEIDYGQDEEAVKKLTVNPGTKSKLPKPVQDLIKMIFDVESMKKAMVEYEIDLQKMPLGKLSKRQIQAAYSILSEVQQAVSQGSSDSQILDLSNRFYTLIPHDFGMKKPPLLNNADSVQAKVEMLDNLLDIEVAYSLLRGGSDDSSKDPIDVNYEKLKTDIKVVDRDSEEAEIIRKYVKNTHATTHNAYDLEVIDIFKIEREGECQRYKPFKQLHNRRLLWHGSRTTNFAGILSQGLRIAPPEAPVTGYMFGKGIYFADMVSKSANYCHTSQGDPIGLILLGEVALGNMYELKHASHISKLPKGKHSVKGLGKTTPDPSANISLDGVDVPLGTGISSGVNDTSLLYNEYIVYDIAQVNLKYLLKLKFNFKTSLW

| Structure (SMILES) | Kd [1] [nM] | IC50 [2] [nM] | Activity [3] | Kd [4] [nM] |
| --- | --- | --- | --- | --- |
| O=C(c1cc(Cc2n[nH]c(=O)c3ccccc23)ccc1F)N1CCCNCC1 | 19 | 3.4 | Active | – |
| Nc1cccc(C(=O)O)c1 [3-AMINOBENZOIC ACID] | – | – | – | > 2000 |
